From ChEMBL document CHEMBL2331518, “Rapid microwave-enhanced synthesis of C5-alkynyl pyranonucleosides as novel cytotoxic antitumor agents” (Bioorg Med Chem Lett, 2013)
Active and inactive are the calls of the source. The calls are words filed in the database; no cut-off is given here.

Tests used:
[1] = system: Human immunodeficiency virus 2; experiment: Antiviral activity against HIV2 ROD infected in human CEM cells assessed as reduction of virus-induced cytopathicity after 4 to 5 days; type: functional, organism-based; conditions: ISOLATE ROD, CCRF-CEM
[2] = system: Human immunodeficiency virus 1; experiment: Antiviral activity against HIV1 3B infected in human CEM cells assessed as reduction of virus-induced cytopathicity after 4 to 5 days; type: functional, organism-based; conditions: CCRF-CEM
Punta Toro virus = experiment: Antiviral activity against Punta Toro virus by cell based assay; type: functional, organism-based
[3] = system: Mammalian orthoreovirus 1; experiment: Antiviral activity against Reovirus-1 by cell based assay; type: functional, organism-based
Influenza B virus = experiment: Antiviral activity against Influenza B virus by cell based assay; type: functional, organism-based
Influenza A virus [4] = experiment: Antiviral activity against Influenza A virus H3N2 by cell based assay; type: functional, organism-based
Sindbis virus = experiment: Antiviral activity against Sindbis virus by cell based assay; type: functional, organism-based
Influenza A virus [5] = experiment: Antiviral activity against Influenza A virus H1N1 by cell based assay; type: functional, organism-based
Human respirovirus 3 = experiment: Antiviral activity against Parainfluenza-3 virus by cell based assay; type: functional, organism-based
Coxsackievirus B4 = experiment: Antiviral activity against Coxsackie virus B4 by cell based assay; type: functional, organism-based
[6] = system: Vesicular stomatitis virus; experiment: Antiviral activity against Vesicular stomatitis virus by cell based assay; type: functional, organism-based
[7] = system: Respiratory syncytial virus; experiment: Antiviral activity against Respiratory syncytial virus Long by cell based assay; type: functional, organism-based
Vaccinia virus = experiment: Antiviral activity against Vaccinia virus Lederle by cell based assay; type: functional, organism-based; conditions: Orthopoxvirus vaccinia
Human alphaherpesvirus 2 [8] = experiment: Antiviral activity against HSV-2 G by cell based assay; type: functional, organism-based; conditions: strain G
Human alphaherpesvirus 1 [9] = experiment: Antiviral activity against kinase-deficient acyclovir-resistant HSV-1 KOS by cell based assay; type: functional, organism-based
Human alphaherpesvirus 2 [10] = experiment: Antiviral activity against HSV-2 Lyons by cell based assay; type: functional, organism-based
Human alphaherpesvirus 1 [11] = experiment: Antiviral activity against HSV-1 KOS by cell based assay; type: functional, organism-based
HeLa = experiment: Cytotoxicity against human HeLa cells after 72 hrs; type: functional, cell-based
L1210 = experiment: Cytotoxicity against mouse L1210 cells after 48 hrs; type: functional, cell-based; conditions: L1210, 48 h
CCRF-CEM = experiment: Cytotoxicity against human CEM cells after 72 hrs; type: functional, cell-based

| SMILES | Activity [1] | Activity [2] | Activity (Punta Toro virus) | Activity [3] | Activity (Influenza B virus) | Activity (Influenza A virus [4]) | Activity (Sindbis virus) | Activity (Influenza A virus [5]) | Activity (Human respirovirus 3) | Activity (Coxsackievirus B4) | Activity [6] | Activity [7] | Activity (Vaccinia virus) | Activity (Human alphaherpesvirus 2 [8]) | Activity (Human alphaherpesvirus 1 [9]) | Activity (Human alphaherpesvirus 2 [10]) | Activity (Human alphaherpesvirus 1 [11]) | IC50 (HeLa) | IC50 (L1210) | IC50 (CCRF-CEM) |
| --- | --- | --- | --- | --- | --- | --- | --- | --- | --- | --- | --- | --- | --- | --- | --- | --- | --- | --- | --- | --- |
| C[n+]1ccccc1C#Cc1cn([C@@H]2O[C@H](CO)[C@@H](O)[C@H](O)[C@H]2O)c(=O)[nH]c1=O | inactive | inactive | inactive | inactive | inactive | inactive | inactive | inactive | inactive | inactive | inactive | inactive | inactive | inactive | inactive | inactive | inactive | 244 µM | 152 µM | > 250 µM |
| O=c1[nH]c(=O)n([C@@H]2O[C@H](CO)[C@@H](O)[C@H](O)[C@H]2O)cc1C#Cc1cccnc1 | inactive | inactive | inactive | inactive | inactive | inactive | inactive | inactive | inactive | inactive | inactive | inactive | inactive | inactive | inactive | inactive | inactive | > 250 µM | > 250 µM | > 250 µM |
| CCCCCc1ccc(C#Cc2cn([C@@H]3O[C@H](CO)[C@@H](O)[C@H](O)[C@H]3O)c(=O)nc2O)cc1 |  |  |  |  |  |  |  |  |  |  |  |  |  |  |  |  |  | 31 µM | 70 µM | 81 µM |
| O=c1[nH]c(=O)n([C@@H]2O[C@H](CO)[C@@H](O)[C@H](O)[C@H]2O)cc1CCc1ccccc1 |  |  |  |  |  |  |  |  |  |  |  |  |  |  |  |  |  | 43 µM | 300 µM | 244 µM |
| CC(C)(C)c1ccc(C#Cc2cn([C@@H]3O[C@H](CO)[C@@H](O)[C@H](O)[C@H]3O)c(=O)nc2N)cc1 |  |  |  |  |  |  |  |  |  |  |  |  |  |  |  |  |  | 140 µM | > 250 µM | > 250 µM |
| CCCc1cc2cn([C@@H]3O[C@H](CO)[C@@H](O)[C@H](O)[C@H]3O)c(=O)nc2o1 | inactive | inactive | inactive | inactive | inactive | inactive | inactive | inactive | inactive | inactive | inactive | inactive | inactive | inactive | inactive | inactive | inactive | 125 µM | 132 µM | 173 µM |
| C#Cc1cn([C@@H]2O[C@H](CO)[C@@H](O)[C@H](O)[C@H]2O)c(=O)[nH]c1=O |  |  |  |  |  |  |  |  |  |  |  |  |  |  |  |  |  | 231 µM | 141 µM | > 250 µM |
| C#Cc1cn([C@@H]2O[C@H](CO)[C@@H](O)[C@H](O)[C@H]2O)c(=O)nc1N |  |  |  |  |  |  |  |  |  |  |  |  |  |  |  |  |  | ≥ 250 µM | ≥ 250 µM | > 250 µM |
| CCCCCC#Cc1cn([C@@H]2O[C@H](CO)[C@@H](O)[C@H](O)[C@H]2O)c(=O)[nH]c1=O |  |  |  |  |  |  |  |  |  |  |  |  |  |  |  |  |  | 29 µM | 22 µM | 26 µM |
| CC(=O)OC[C@H]1O[C@@H](n2cc(C#Cc3ccc[n+](C)c3)c(=O)[nH]c2=O)[C@H](OC(C)=O)[C@@H](OC(C)=O)[C@@H]1OC(C)=O |  |  |  |  |  |  |  |  |  |  |  |  |  |  |  |  |  | > 250 µM | > 250 µM | > 250 µM |
| CC(=O)OC[C@H]1O[C@@H](n2cc(C#Cc3ccccn3)c(=O)[nH]c2=O)[C@H](OC(C)=O)[C@@H](OC(C)=O)[C@@H]1OC(C)=O |  |  |  |  |  |  |  |  |  |  |  |  |  |  |  |  |  | 90 µM | 115 µM | 139 µM |
| C[n+]1cccc(C#Cc2cn([C@@H]3O[C@H](CO)[C@@H](O)[C@H](O)[C@H]3O)c(=O)[nH]c2=O)c1 | inactive | inactive | inactive | inactive | inactive | inactive | inactive | inactive | inactive | inactive | inactive | inactive | inactive | inactive | inactive | inactive | inactive | > 250 µM | > 250 µM | > 250 µM |
| CC(C)(C)c1ccc(C#Cc2cn([C@@H]3O[C@H](CO)[C@@H](O)[C@H](O)[C@H]3O)c(=O)nc2O)cc1 |  |  |  |  |  |  |  |  |  |  |  |  |  |  |  |  |  | 37 µM | 185 µM | > 250 µM |
| CCCC#Cc1cn([C@@H]2O[C@H](CO)[C@@H](O)[C@H](O)[C@H]2O)c(=O)[nH]c1=O |  |  |  |  |  |  |  |  |  |  |  |  |  |  |  |  |  | 95 µM | 115 µM | 123 µM |
| CCCC#Cc1cn([C@@H]2O[C@H](CO)[C@@H](O)[C@H](O)[C@H]2O)c(=O)nc1N |  |  |  |  |  |  |  |  |  |  |  |  |  |  |  |  |  | 191 µM | ≥ 250 µM | > 250 µM |
| CCCCCc1cc2cn([C@@H]3O[C@H](CO)[C@@H](O)[C@H](O)[C@H]3O)c(=O)nc2o1 | inactive | inactive | inactive | inactive | inactive | inactive | inactive | inactive | inactive | inactive | inactive | inactive | inactive | inactive | inactive | inactive | inactive | > 250 µM | ≥ 250 µM | > 250 µM |
| CC(=O)OC[C@H]1O[C@@H](n2cc(C#Cc3cccc[n+]3C)c(=O)[nH]c2=O)[C@H](OC(C)=O)[C@@H](OC(C)=O)[C@@H]1OC(C)=O |  |  |  |  |  |  |  |  |  |  |  |  |  |  |  |  |  | 232 µM | 203 µM | > 250 µM |
| O=c1[nH]c(=O)n([C@@H]2O[C@H](CO)[C@@H](O)[C@H](O)[C@H]2O)cc1C#Cc1ccccn1 | inactive | inactive | inactive | inactive | inactive | inactive | inactive | inactive | inactive | inactive | inactive | inactive | inactive | inactive | inactive | inactive | inactive | 66 µM | 71 µM | 79 µM |
| CCCCCC#Cc1cn([C@@H]2O[C@H](CO)[C@@H](O)[C@H](O)[C@H]2O)c(=O)nc1N |  |  |  |  |  |  |  |  |  |  |  |  |  |  |  |  |  | ≥ 250 µM | ≥ 250 µM | > 250 µM |
| CC(=O)OC[C@H]1O[C@@H](n2cc(C#Cc3cccnc3)c(=O)[nH]c2=O)[C@H](OC(C)=O)[C@@H](OC(C)=O)[C@@H]1OC(C)=O |  |  |  |  |  |  |  |  |  |  |  |  |  |  |  |  |  | > 250 µM | > 250 µM | 182 µM |
| Nc1nc(=O)n([C@@H]2O[C@H](CO)[C@@H](O)[C@H](O)[C@H]2O)cc1C#Cc1ccccc1 |  |  |  |  |  |  |  |  |  |  |  |  |  |  |  |  |  | 201 µM | ≥ 250 µM | > 250 µM |
| CCCCCc1ccc(C#Cc2cn([C@@H]3O[C@H](CO)[C@@H](O)[C@H](O)[C@H]3O)c(=O)nc2N)cc1 |  |  |  |  |  |  |  |  |  |  |  |  |  |  |  |  |  | 43 µM | 132 µM | 115 µM |
| O=c1nc(O)c(C#Cc2ccccc2)cn1[C@@H]1O[C@H](CO)[C@@H](O)[C@H](O)[C@H]1O | inactive | inactive | inactive | inactive | inactive | inactive | inactive | inactive | inactive | inactive | inactive | inactive | inactive | inactive | inactive | inactive | inactive | 5.4 µM | 6.2 µM | 5.2 µM |
